From ChEMBL document CHEMBL1121526, “Use of acetylacetone to prepare a prodrug of cycloserine” (1980) come the findings set out here.

The species entered for test [1] is Mus musculus. Nature of the test: The compound was tested for urinary recovery was assayed for its content for total cycloserine content employing the chemical assay in mouse. In kind it is functional, Urine.
Test [2] is filed under the species Mus musculus. Nature of the test: The compound was tested for urinary recovery was assayed for its content of free cycloserine by employing the bioassay in mouse. The class given is functional, Urine.
The subject of test [3] is Escherichia coli. Nature of the test: antibacterial activity was reported as zones of inhibition in the disk diffusion assay using Escherichia coli. The class given is functional. For orientation: Agar diffusion results depend on both activity and mobility in agar.
Test [4] deals with Staphylococcus aureus. Nature of the test: antibacterial activity was reported as zones of inhibition in the disk diffusion assay using staphylococcus aureus. In kind it is functional.

A value given as a limit tells only on which side of the number the result lay.

For the compound `CNC(=O)NC1CON(C(=O)NC)C1=O` (stereo not given), the “Urinary recovery of total cycloserine” value in test [1] was under 1%. In addition, the “Urinary recovery of free cycloserine” value in test [2] is given as under 1%. Also, the Diameter in test [3] and in test [4] was under 6 mm in each case.
With `O=C(CCl)NC1CON(C(=O)CCl)C1=O` (stereo not given), the “Urinary recovery of total cycloserine” value in test [1] amounted to 43%. Also, the “Urinary recovery of free cycloserine” value in test [2] was found to be 1.1%. In addition, the Diameter in test [3] and in test [4] was under 6 mm in each case.
Regarding `C/C(O)=C\C(C)=N\C1CONC1=O` (stereo not given), the “Urinary recovery of total cycloserine” value in test [1] was determined as 64%. Further, the “Urinary recovery of free cycloserine” value in test [2] was 93%. Moreover, the Diameter stood at 39 mm in test [3] and 36 mm in test [4].
With `CCOC(=O)NC1CONC1=O` (stereo not given), the “Urinary recovery of total cycloserine” value in test [1] was 33%. In addition, in test [2], the “Urinary recovery of free cycloserine” value is listed as under 1%. In addition, the Diameter in test [3] and in test [4] was under 6 mm throughout.
Turning to `CC1(C)CC(O)=C/C(=N/C2CONC2=O)C1` (stereo not given), the “Urinary recovery of total cycloserine” value in test [1] came to 55%. For the same compound, in test [2], the “Urinary recovery of free cycloserine” value is recorded as under 1%. Further, the Diameter in test [3] and in test [4] was under 6 mm each time.
Turning to `O=C(CCl)NC1CONC1=O` (stereo not given), the “Urinary recovery of total cycloserine” value in test [1] is on record as 70%. Moreover, the “Urinary recovery of free cycloserine” value in test [2] was 1%. For the same compound, the Diameter in test [3] and in test [4] was under 6 mm each time.
For the compound `O=C(NC(=O)C(Cl)(Cl)Cl)NC1CONC1=O` (stereo not given), the “Urinary recovery of total cycloserine” value in test [1] was 55%. The “Urinary recovery of free cycloserine” value in test [2] is listed as under 1%. Also, the Diameter in test [3] was 14 mm; in test [4], under 6 mm.
The like results for `O=C(NC1CONC1=O)C1CCCCC1` (stereo not given) were, in that order, 53%, 1%, under 6 mm and under 6 mm.
Taken in the same sequence, the figures for `CNC(=O)NC1CONC1=O` (stereo not given) were 16%, under 1%, 22 mm and 25 mm.
The like results for `N[C@@H]1CONC1=O` [CYCLOSERINE] were, in that order, 45%, 64%, 39 mm and 36 mm.
